Test results taken from publication PMC12860872, “Preclinical evaluation of DOTAGA.Glu.(FAPI)2 and DO3A.Glu.(FAPI)2 as theranostics with human dosimetry extrapolation to lutetium-177 and terbium-161 analogs” (European Journal of Nuclear Medicine and Molecular Imaging, 2025).
Values joined by “and” are separate entries in the source; they are usually repeats but may differ in a detail not shown here. Identical values can stand only once.

Assays:
[1] = Blood clearance kinetics in healthy mice; assay type: in vivo, mouse; settings: i.v., Two-Phase Decay Model
Description: Blood samples were collected from the facial vein at 1, 3, 5, 7, 10, 15, 20, 30, 45, 60, 240, and 1440 min p.i., weighed, and measured for radioactivity using a γ-counter. Results were expressed as % I.A./g of blood and plotted over time. The initial and terminal half-lives were determined using Two-Phase Decay Model. The biological half-lives of selected organs were calculated from the biodistribution data using One-Phase Decay Model (GraphPad Prism 8).

[2] = Extrapolated human dosimetry (OLINDA/EXM, ICRP-89 phantoms); design: TIAC average pancreas: unit not given beside the values; TIAC average stomach / TIAC average Small Intestine / TIAC average Left Column / TIAC average Rectum / TIAC average adrenal / TIAC average bone / TIAC average Red marrow / TIAC average salivary glands / TIAC average ROB / TIAC average Total Frac IA / TIAC average heart content / TIAC average heart wall / TIAC average liver / TIAC average spleen / TIAC average lung / TIAC average kidney: unit not given here
Description: To address inter-animal variability, the TIACs for each source organ were calculated from both the mean nTACs and the nTACs obtainend from fitting the mean ± 1 standard deviation (SD) of the normalized time-activity data, providing upper and lower bounds.
The mice-to-human TIAC extrapolation accounted for species-specific differences in relative source organ masses, m(organ), as compared to the total body weight (WB), for the mice (m) and human (h) models respectively.
The human organ masses, m(organ)h, were obtained from ICRP-89 adult male and female reference phantoms, while the murine organ masses, m(organ)m, were derived from the standard MOBY mouse model. The extrapolated human TIACs, TIACh were entered in the OLINDA/EXM software to compute the absorbed doses to target organs and the effective dose for adult male, female, and gender-averaged human models. […]
The TIACs, for [177Lu]Lu-DOTAGA.Glu.(FAPI)2 and [177Lu]Lu-DO3A.Glu.(FAPI)2, were determined by time integration of the nTACs. To account for the inter-animal variability, the TIACs for each source organ were calculated using both the mean nTACs and the nTACs obtainend from fitting the mean ±1 standard deviation (SD) of the normalized time-activity data. This approach provided the upper and the lower bounds for the estimated TIACs.
The mice-to-human TIAC extrapolation was obtained considering the different (species-specific) relative source organ masses, m(organ), as compared to the total body weight (WB), for the mice (m) and human (h) models respectively.
The human organ masses, m(organ)h, were obtained from the adult male and female reference models phantoms defined in ICRP-89, while the murine organ masses, m(organ)m, were derived from the standard MOBY mouse model. The extrapolated human TIACs values, TIACh, for each source organ were input into the kinetic module of the OLINDA/EXM software (version 2.1, HERMES Medical Solutions AB, Stockholm, Sweden) to compute the absorbed doses to target organs and the effective dose for adult male, female, and gender-averaged human models. […]

[3] = cited from earlier work
[4] = ICRP 89 Adult Female, extrapolated
[5] = ICRP 89 Adult Male, extrapolated
[6] = human extrapolation, male-female range

N#C[C@@H]1CC(F)(F)CN1C(=O)CNC(=O)c1ccnc2ccc(OCCCCNC(=O)CC[C@H](NC(=O)CCC(C(=O)O)N3CCN(CC(=O)[O-])CCN(CC(=O)[O-])CCN(CC(=O)[O-])CC3)C(=O)NCCCCOc3ccc4nccc(C(=O)NCC(=O)N5CC(F)(F)C[C@H]5C#N)c4c3)cc12.[177Lu+3] (stereo partly shown) [[^177Lu]Lu-DOTAGA.Glu.(FAPI)2]
Blood half life (initial) [1]: 2.8 min
Blood half life (terminal) [1]: 4.692 h and 4.7 h
Absorbed dose (AD average) Adrenals [2, 4]: 1.46E-02 mGy/Mbq
Absorbed dose (AD average) Brain [2, 4]: 2.94E-02 mGy/Mbq
Absorbed dose (AD average) Breasts [2, 4]: 2.88E-02 mGy/Mbq
Absorbed dose (AD average) Esophagus [2, 4]: 3.06E-02 mGy/Mbq
Absorbed dose (AD average) Eyes [2, 4]: 2.94E-02 mGy/Mbq
Absorbed dose (AD average) Gallbladder Wall [2, 4]: 3.30E-02 mGy/Mbq
Absorbed dose (AD average) Heart Wall [2, 4]: 4.42E-02 mGy/Mbq
Absorbed dose (AD average) Kidneys [2, 4]: 4.97E-02 ± 0.002 mGy/Mbq and 4.97E-02 mGy/Mbq
Absorbed dose (AD average) Left colon [2, 4]: 1.05E-01 mGy/Mbq
Absorbed dose (AD average) Liver [2, 4]: 2.00E-01 ± 0.02 mGy/Mbq and 2.00E-01 mGy/Mbq
Absorbed dose (AD average) Lungs [2, 4]: 4.59E-02 ± 0.004 mGy/Mbq and 4.59E-02 mGy/Mbq
Absorbed dose (AD average) Osteogenic Cells [2, 4]: 8.92E-02 ± 0.01 mGy/Mbq and 8.92E-02 mGy/Mbq
Absorbed dose (AD average) Ovaries [2, 4]: 3.09E-02 mGy/Mbq
Absorbed dose (AD average) Pancreas [2, 4]: 3.90E-02 ± 0.002 mGy/Mbq and 3.90E-02 mGy/Mbq
Absorbed dose (AD average) Rectum [2, 4]: 1.07E-01 mGy/Mbq
Absorbed dose (AD average) Red Marrow [2, 4]: 3.24E-02 ± 0.003 mGy/Mbq and 3.24E-02 mGy/Mbq
Absorbed dose (AD average) Right colon [2, 4]: 6.88E-02 mGy/Mbq
Absorbed dose (AD average) Salivary Glands [2, 4]: 1.26E-01 ± 0.004 mGy/Mbq and 1.26E-01 mGy/Mbq
Absorbed dose (AD average) Small Intestine [2, 4]: 5.84E-02 ± 0.02 mGy/Mbq and 5.84E-02 mGy/Mbq
Absorbed dose (AD average) Spleen [2, 4]: 3.53E-02 ± 0.01 mGy/Mbq and 3.53E-02 mGy/Mbq
Absorbed dose (AD average) Stomach Wall [2, 4]: 4.24E-02 mGy/Mbq
Absorbed dose (AD average) Thymus [2, 4]: 3.04E-02 mGy/Mbq
Absorbed dose (AD average) Thyroid [2, 4]: 2.95E-02 mGy/Mbq
Absorbed dose (AD average) Total Body [2, 4]: 4.42E-02 ± 0.01 mGy/Mbq and 4.42E-02 mGy/Mbq
Absorbed dose (AD average) Urinary Bladder Wall [2, 4]: 3.05E-02 mGy/Mbq
Absorbed dose (AD average) Uterus [2, 4]: 3.10E-02 mGy/Mbq
Effective dose (average) [2, 4]: 4.71E-02
Absorbed dose (AD average) Adrenals [2, 5]: 1.17E-02 mGy/Mbq
Absorbed dose (AD average) Brain [2, 5]: 1.98E-02 mGy/Mbq
Absorbed dose (AD average) Esophagus [2, 5]: 2.11E-02 mGy/Mbq
Absorbed dose (AD average) Eyes [2, 5]: 1.97E-02 mGy/Mbq
Absorbed dose (AD average) Gallbladder Wall [2, 5]: 2.49E-02 mGy/Mbq
Absorbed dose (AD average) Heart Wall [2, 5]: 3.66E-02 mGy/Mbq
Absorbed dose (AD average) Kidneys [2, 5]: 4.08E-02 ± 0.002 mGy/Mbq and 4.08E-02 mGy/Mbq
Absorbed dose (AD average) Left colon [2, 5]: 8.56E-02 mGy/Mbq
Absorbed dose (AD average) Liver [2, 5]: 1.64E-01 ± 0.01 mGy/Mbq and 1.64E-01 mGy/Mbq
Absorbed dose (AD average) Lungs [2, 5]: 3.74E-02 ± 0.003 mGy/Mbq and 3.74E-02 mGy/Mbq
Absorbed dose (AD average) Osteogenic Cells [2, 5]: 9.26E-02 ± 0.01 mGy/Mbq and 9.26E-02 mGy/Mbq
Absorbed dose (AD average) Pancreas [2, 5]: 3.11E-02 ± 0.002 mGy/Mbq and 3.11E-02 mGy/Mbq
Absorbed dose (AD average) Prostate [2, 5]: 2.04E-02 mGy/Mbq
Absorbed dose (AD average) Rectum [2, 5]: 8.54E-02 mGy/Mbq
Absorbed dose (AD average) Red Marrow [2, 5]: 2.38E-02 ± 0.002 mGy/Mbq and 2.38E-02 mGy/Mbq
Absorbed dose (AD average) Right colon [2, 5]: 5.39E-02 mGy/Mbq
Absorbed dose (AD average) Salivary Glands [2, 5]: 1.03E-01 ± 0.004 mGy/Mbq and 1.03E-01 mGy/Mbq
Absorbed dose (AD average) Small Intestine [2, 5]: 4.17E-02 ± 0.01 mGy/Mbq and 4.17E-02 mGy/Mbq
Absorbed dose (AD average) Spleen [2, 5]: 2.87E-02 ± 0.01 mGy/Mbq and 2.87E-02 mGy/Mbq
Absorbed dose (AD average) Stomach Wall [2, 5]: 3.05E-02 mGy/Mbq
Absorbed dose (AD average) Testes [2, 5]: 1.95E-02 mGy/Mbq
Absorbed dose (AD average) Thymus [2, 5]: 2.03E-02 mGy/Mbq
Absorbed dose (AD average) Thyroid [2, 5]: 2.02E-02 mGy/Mbq
Absorbed dose (AD average) Total Body [2, 5]: 3.25E-02 ± 0.003 mGy/Mbq and 3.25E-02 mGy/Mbq
Absorbed dose (AD average) Urinary Bladder Wall [2, 5]: 2.03E-02 mGy/Mbq
Effective dose (average) ([2]; ICRP 89 Adult Male, extrapolated, in mSv/MBq (unit assumed)): 3.40E-02
absorbed dose kidneys [2, 6]: 0.04–0.05 Gy/GBq
absorbed dose liver [2, 6]: 0.16–0.20 Gy/GBq
absorbed dose salivary glands [2, 6]: 0.10–0.13 Gy/GBq
total body and effective doses [2, 6]: 0.033–0.044 Gy/GBq
TIAC average Left Column ([2]; human female, extrapolated): 0.1373
TIAC average ROB ([2]; human female, extrapolated): 18.6076
TIAC average Rectum ([2]; human female, extrapolated): 0.1420
TIAC average Red marrow ([2]; human female, extrapolated): 0.2030
TIAC average Small Intestine ([2]; human female, extrapolated): 0.1803
TIAC average Total Frac IA ([2]; human female, extrapolated): 25.6850
TIAC average adrenal ([2]; human female, extrapolated): 0.0011
TIAC average bone ([2]; human female, extrapolated): 4.9073
TIAC average heart content ([2]; human female, extrapolated): 0.0834
TIAC average heart wall ([2]; human female, extrapolated): 0.0889
TIAC average kidney ([2]; human female, extrapolated): 0.1445
TIAC average liver ([2]; human female, extrapolated): 3.1244
TIAC average lung ([2]; human female, extrapolated): 0.4651
TIAC average pancreas ([2]; human female, extrapolated): 0.0460
TIAC average salivary glands ([2]; human female, extrapolated): 0.1012
TIAC average spleen ([2]; human female, extrapolated): 0.0480
TIAC average stomach ([2]; human female, extrapolated): 0.0626
TIAC average Left Column ([2]; human male, extrapolated): 0.1129
TIAC average ROB ([2]; human male, extrapolated): 15.0586
TIAC average Rectum ([2]; human male, extrapolated): 0.1129
TIAC average Red marrow ([2]; human male, extrapolated): 0.2169
TIAC average Small Intestine ([2]; human male, extrapolated): 0.1684
TIAC average Total Frac IA ([2]; human male, extrapolated): 25.6850
TIAC average adrenal ([2]; human male, extrapolated): 0.0009
TIAC average bone ([2]; human male, extrapolated): 5.5459
TIAC average heart content ([2]; human male, extrapolated): 0.0945
TIAC average heart wall ([2]; human male, extrapolated): 0.0965
TIAC average kidney ([2]; human male, extrapolated): 0.1339
TIAC average liver ([2]; human male, extrapolated): 3.3017
TIAC average lung ([2]; human male, extrapolated): 0.4829
TIAC average pancreas ([2]; human male, extrapolated): 0.0441
TIAC average salivary glands ([2]; human male, extrapolated): 0.1010
TIAC average spleen ([2]; human male, extrapolated): 0.0456
TIAC average stomach ([2]; human male, extrapolated): 0.0557
absorbed dose left colon ([3]; human dosimetry, mean): 0.31 ± 0.12 Gy/GBq
absorbed dose right colon ([3]; human dosimetry, mean): 0.22 ± 0.09 Gy/GBq
biological half-life in bone metastases ([3]; human studies): 19.5 ± 7.3 h
biological half-life in soft tissue metastases ([3]; human studies): 22.1 ± 6.7 h
